Results taken from publication PMC5766630, “Non-estrogenic Xanthohumol Derivatives Mitigate Insulin Resistance and Cognitive Impairment in High-Fat Diet-induced Obese Mice” (Scientific Reports, 2018).

Legend:
[1] = tested on: liver AMPK (pAMPKα/total AMPKα); assay: AMPK activation in liver by Western blot; type: in vivo, mouse; settings: HFD mice, 30 mg/kg/day, 13 weeks, vs control
Experimental: Approximately 150 mg of frozen liver and muscle tissues were homogenized in tubes containing RIPA buffer with protease and phosphatase inhibitors plus ceramic beads (1.4 mm Ceramic, Bulk Beads, Fisher Scientific, Pittsburgh, PA, USA) using a Precellys 24 (PEQLAB Biotechnology GmbH, Germany). Liver tissue was homogenized for 1 × 30 sec at 6,500 rpm whereas muscle was homogenized for 3 × 30 sec at 6,500 rpm with 20 sec intervals. The homogenates were centrifuged at 15,700 × g for 10 minutes and aliquots (50 µg of protein) of the supernatant (lysate) were separated by SDS-PAGE using 4–15% MP TGX Gels (Bio-Rad # 4561083) and blotted onto nitrocellulose membranes. Membranes were blocked with 5% nonfat milk for 2 h and incubated with antibodies against pAMPK (Phospho-AMPKα (Thr172) Antibody, cat. no. #2531 Cell Signaling Technology, Danvers, MA, USA), AMPK (AMPKα Antibody, cat. no. #2532 Cell Signaling Technology, Danvers, MA, USA), or β-actin (Santa Cruz Biotechnology) for 1 h or overnight. After a second reaction with secondary antibodies (horseradish peroxidase-conjugated IgG goat antirabbit or goat antimouse antibodies), the protein bands on the nitrocellulose membranes were visualized by enhanced chemiluminescence substrate on a Biorad ChemiDocTM MP Imaging System (BioRad Laboratories Inc, Hercules, CA, USA). Band intensities were quantified by densitometry using Image J software.

[2] = tested on: C57BL/6J mice fed a high-fat diet; assay: In vivo liver toxicity: plasma AST and ALT; parameters: species or system mouse; settings: male C57BL/6J mice, HFD, 30 mg/kg/day in diet, 13 weeks; mean ± SE, n = 11–12
Description: Nine-week old male C57BL/6J mice, obtained from The Jackson Laboratory (Bar Harbor, ME, USA), were housed individually in plastic cages under a 12–12-hr light-dark cycle. They were assigned randomly to four groups consisting of 12 mice each. One group (control) was fed a HFD (Dyets Inc., Bethlehem, PA, USA) containing 60%, 20% and 20% total calories from fat, carbohydrate and protein, respectively, and the other three groups were fed the HFD containing XN, DXN, or TXN. The test compounds were dissolved in an isotropic mixture of oleic acid:propylene glycol:Tween 80, 0.9:1:1 by weight (OPT) before incorporation into the HFD. The control diet contained an identical amount of OPT. All diets were prepared in pellet form by Dyets, Inc. (Bethlehem, PA, USA). The mouse diets were formulated to deliver a dose of 30 mg test compound per kg body weight per day. Food intake was measured three times per week and body weights were recorded weekly. At the end of 13 weeks of feeding, the mice were euthanized and blood, liver and skeletal muscle were collected for analyses. All animal protocols were approved by Institutional Animal Care and Use Committee (IACUC) at Oregon State University. Animal experiments were carried out in accordance with the relevant guidelines and regulations.
Plasma triglycerides and total cholesterol were analyzed with commercially available kits (Fisher-Scientific, Pittsburgh, PA, USA). Plasma glucose was analyzed by a test kit obtained from Wako Diagnostics (Mountain View, CA, USA). Plasma insulin and leptin were analyzed by ELISA kits purchased from Alpco Diagnostics (Salem, NH, USA) and Crystal Chem (Downers Grove, IL, USA), respectively. Homeostasis Model Assessment of Insulin Resistance (HOMA-IR) was calculated as follows: fasting plasma insulin concentration (mU/L) × fasting plasma glucose level (mmol/L)/22.5[95]. Plasma levels of AST and ALT were measured using commercially-available kits (Bioo Scientific Corp., Austin, TX, USA) as indicators of in vivo liver toxicity.

[3] = tested on: C57BL/6J mice fed a high-fat diet; assay: Water maze: spatial learning and memory; type: in vivo, mouse; settings: for Reached platform location faster than control (latency to first cross), probe trial: probe trial 24 h after last hidden platform trial; for Number of mice that spent more time in the correct quadrant than in any other quadrant / Number of mice that reached the platform location within 35 seconds: probe trial; for Number of mice that spent more time in the correct quadrant than in any other quadrant: control 3 out of 12; for Number of mice that reached the platform location within 35 seconds: control 5 out of 12; for Number of mice that reached the hidden platform at least twice within 50 seconds: trials 6 to 8, control 3 out of 12
Experimental: After 13 weeks of feeding the experimental diets, general task learning, spatial learning and memory, and long-term spatial memory retention were tested using the water maze, as previously described[97],[98]. Briefly, the water maze consisted of a circular pool, filled with water (24 °C) made opaque white with non-toxic tempera paint (Prang, Dixon Ticonderoga Company, Heathrow, FL, USA). Spatial cues consisted of figures of geometric shape and other items such as toys and pieces of cloth. The cues were placed on the walls of both the room and the sides of the tank and were present throughout all water maze trials. All trials consisted of a maximum of 60 s in the water searching for the platform and 10 s on the platform. […] Trials on the same day were separated by 10 min. Mice were first trained to locate a visible escape platform (plexiglass circle, 12 cm diameter) submerged 2 cm below the surface of the water, by the use of a cue (a colored cylinder, 2.5 cm radius, 8 cm height) during the visible platform trials (1–2). The location of the platform during visible platform trials was moved between trials to avoid procedural biases in task learning to a specific quadrant. Subsequent to the visible platform training, mice were trained to locate the platform without a visible cue during the hidden platform trials (3–8), which required the mice to rely on extra-maze cues for spatial reference and orientation. To analyze learning curves, time to reach the platform (latency) and swim speeds were assessed. Spatial memory retention was assessed 24 h following the conclusion of the eighth trial of hidden platform training in the probe trial (no platform). For data analysis, the pool was divided conceptually into four quadrants. Time spent searching in the target quadrant compared to the time spent in the three non-target quadrants and the latency to the first crossing of the platform location were analyzed. Following the probe trial, mice were administered two additional visible platform trials. Thigmotaxis, a tendency to remain close the walls, is commonly used as an index of anxiety in mice. For thigmotaxis, we analyzed the time (%) mice spent swimming in the outer part of the pool (<10 cm from edge of pool) during the visible trials. Water maze performance was tracked and analyzed using Ethovision software set at 6 samples/s (Noldus Information Technology, Leesburg, VA). Heat map images were generated using EthoVision Heatmap Generator software and representative images were selected from mice closest to the group mean values for time spent in the quadrant target.
Water maze learning curves: data, except for spatial learning, were analyzed using a one-way ANOVA for single measures within animals and a repeated-measures-in-time design ANOVA for repeated measures within animals. To evaluate spatial learning, we first compared at each session the control versus each XN metabolite group. For further analysis of spatial learning, the first 3 sessions were used for training of spatial learning and the last 3 session for spatial learning. […] To show spatial learning, mice had to reach the platform during the last 3 evaluation sessions at least twice within 50 seconds. Fisher’s exact test was used to compare control versus each XN metabolite group.

| SMILES | Increase of liver AMPK activation (phosphorylated AMPKα/total AMPKα) [1] | Plasma ALT [2] [U/L] | Plasma AST [2] [U/L] | More time in the correct (Target) quadrant than control ([3]; 60-s probe trial) [%] | Reached hidden platform faster than HFD only, trial 6 ([3]; hidden platform) [%] | Reached hidden platform faster than HFD only, trial 7 ([3]; hidden platform) [%] | Reached hidden platform faster than HFD only, trial 8 ([3]; hidden platform) [%] | Reached platform location faster than control (latency to first cross), probe trial [3] [%] | Number of mice that spent more time in the correct quadrant than in any other quadrant [3] | Number of mice that reached the platform location within 35 seconds [3] | Number of mice that reached the hidden platform at least twice within 50 seconds [3] | Slower swim speed versus HFD only ([3]; during the hidden platform trials) [%] | Reached hidden platform faster than HFD only, average of trials 6 to 8 ([3]; hidden platform) [%] | Reached hidden platform faster than HFD only, first hidden platform trial (trial #3) ([3]; hidden platform trial 3) [%] | Reached visible platform faster than control, first trial ([3]; visible platform trial 1, HFD mice, 30 mg/kg/day, 13 weeks) [%] |
| --- | --- | --- | --- | --- | --- | --- | --- | --- | --- | --- | --- | --- | --- | --- | --- |
| COc1cc(O)c(CC=C(C)C)c(O)c1C(=O)/C=C/c1ccc(O)cc1 [XN, 3′-[3,3-dimethylallyl]-2′,4′,4-trihydroxy-6′-methoxychalcone] | 24% | 68.8 ± 6.8 | 112.3 ± 3.3 | 6.8 | 47 | 43 | 49 | 45 | all but one | all but one | all |  |  |  |  |
| COc1cc(O)c(CC=C(C)C)c(O)c1C(=O)CCc1ccc(O)cc1 [DXN, α,β-Dihydroxanthohumol] | did not cause a significant activation | 55.8 ± 6.1 | 105.6 ± 6.5 |  |  |  |  | 58 | 9 out of 12 | all but one | 9 out of 12 | 10 | 28 |  |  |
| COc1cc(O)c(CCC(C)C)c(O)c1C(=O)CCc1ccc(O)cc1 [TXN, tetrahydroxanthohumol] | did not cause a significant activation | 56.8 ± 10.5 | 110.5 ± 6.0 |  | 44 |  | 35 | 45 | all but one | all but one | all |  | 45 | 18 | 24 |
